In patent US20240279236A1, “COMPOUNDS AND METHODS OF TREATING TUBERCULOSIS” (Fimbrion Therapeutics, Inc., priority 2021, published 2024):

These molecules were tested on WT Mtb Erdman strain (assay: Microplate Alamar Blue Assay (MABA), Mtb growth inhibition). Details: Mycobacterium tuberculosis, ERDMAN, 168 h, Middlebrook 7H9 media, 7 days at 37° C. in 5% CO2.
Assay type: cell-based, Mycobacterium tuberculosis

`CCc1nc(NCCCc2ccc(-c3ccc(Cl)c(Cl)c3)cc2)c2cc(C)sc2n1` [Example 281, N-(3-(3′,4′-dichloro-[1,1′-biphenyl]-4-yl)propyl)-2-ethyl-6-methylthieno[2,3-d]pyrimidin-4-amine] and `CCc1nc(NCCCc2ccc(-c3ccc(Cl)c(F)c3)cc2)c2cc(C)sc2n1` [Example 301, N-(3-(4′-chloro-3′-fluoro-[1,1′-biphenyl]-4-yl)propyl)-2-ethyl-6-methylthieno[2,3-d]pyrimidin-4-amine] are within 1.5-fold of each other in IC50: 44 nM for the first, 45 nM for the second.

Going from `Cc1cc2c(NCCCc3ccc(-c4ccc(Cl)cc4)cc3)nc(C(F)(F)F)nc2s1` [Example 282, N-(3-(4′-chloro-[1,1′-biphenyl]-4-yl)propyl)-6-methyl-2-(trifluoromethyl) thieno[2,3-d]pyrimidin-4-amine] to `COc1ccc(-c2ccc(CCCNc3nc(C(F)(F)F)nc4sc(C)cc34)cc2)cc1` [Example 288, N-(3-(4′-methoxy-[1,1′-biphenyl]-4-yl)propyl)-6-methyl-2-(trifluoromethyl) thieno[2,3-d]pyrimidin-4-amine], the IC50 rises from 130 nM to 310 nM (2.4-fold).

`CCc1nc(NCCCc2ccc(-c3cccc(S(C)(=O)=O)c3)cc2)c2cc(C)sc2n1` [Example 283, 2-ethyl-6-methyl-N-(3-(3′-(methylsulfonyl)-[1,1′-biphenyl]-4-yl)propyl)thieno [2,3-d]pyrimidin-4-amine] and `CCc1nc(NCCCc2ccc(-c3cccc(C(=O)NC)c3)cc2)c2cc(C)sc2n1` [Example 284, 4′-(3-((2-ethyl-6-methylthieno[2,3-d]pyrimidin-4-yl)amino)propyl) N-methyl-[1,1′-biphenyl]-3-carboxamide] are within 1.5-fold of each other in IC50: 3200 nM for the first, 2900 nM for the second.

Compared with `Cc1cc2c(NCCCc3ccc(-c4ccc(OC(F)(F)F)cc4)cc3)nc(-c3ccc(OC(F)(F)F)cc3)nc2s1` [Example 285, 6-methyl-N-(3-(4′-(trifluoromethoxy)-[1,1′-biphenyl]-4-yl)propyl)-2-(4-(trifluoromethoxy)phenyl)thieno [2,3-d]pyrimidin-4-amine], `Cc1cc2c(NCCCc3ccc(-c4ccc(OC(F)(F)F)cc4)cc3)nc(-c3ccc(F)cc3)nc2s1` [Example 295, 2-(4-fluorophenyl)-6-methyl-N-(3-(4′-(trifluoromethoxy)-[1,1′-biphenyl]-4-yl)propyl)thieno [2,3-d]pyrimidin-4-amine] is lower in IC50: over 10000 nM for the first, 400 nM for the second. The second is the more potent here.

First: Cc1cc2c(NCCCc3ccc(-c4ccc(OC(F)(F)F)cc4)cc3)nc(-c3ccccn3)nc2s1 [Example 286, 6-methyl-2-(pyridin-2-yl)-N-(3-(4′-(trifluoromethoxy)-[1,1′-biphenyl]-4-yl)propyl)thieno [2,3-d]pyrimidin-4-amine]
Second: Cc1cc2c(NCCCc3ccc(-c4ccc(OC(F)(F)F)cc4)cc3)nc(-c3ccoc3)nc2s1 [Example 291, 2-(furan-3-yl)-6-methyl-N-(3-(4′-(trifluoromethoxy)-[1,1′-biphenyl]-4-yl)propyl)thieno [2,3-d]pyrimidin-4-amine]
The IC50 of the first is 16-fold higher: 130 nM for the first, 8 nM for the second. The second is the more potent here.

First: Cc1cc2c(NCCCc3ccc(-c4ccc(F)c(F)c4)cc3)nc(C(F)(F)F)nc2s1 [Example 287, N-(3-(3′,4′-difluoro-[1,1′-biphenyl]-4-yl)propyl)-6-methyl-2-(trifluoromethyl) thieno[2,3-d]pyrimidin-4-amine]
Second: Cc1cc2c(NCCCc3ccc(-c4ccc(Cl)c(Cl)c4)cc3)nc(C(F)(F)F)nc2s1 [Example 290, N-(3-(3′,4′-dichloro-[1,1′-biphenyl]-4-yl)propyl)-6-methyl-2-(trifluoromethyl) thieno[2,3-d]pyrimidin-4-amine]
The IC50 of the first is 2.1-fold lower: 190 nM for the first, 390 nM for the second. The first is the more potent here.

Going from `CSc1nc(NCCCc2ccc(-c3ccc(OC(F)(F)F)cc3)cc2)c2cc(C)sc2n1` [Example 289, 6-methyl-2-(methylthio)-N-(3-(4′-(trifluoromethoxy)-[1,1′-biphenyl]-4-yl)propyl)thieno [2,3-d]pyrimidin-4-amine] to `CSc1nc(NCCCc2ccc(-c3ccc(OC(F)(F)F)cc3)cc2)c2nc(C)sc2n1` [Example 292, 2-methyl-5-(methylthio)-N-(3-(4′-(trifluoromethoxy)-[1,1′-biphenyl]-4-yl)propyl)thiazolo [5,4-d]pyrimidin-7-amine], the IC50 rises from 8 nM to 16 nM (2-fold).

First: Cc1cc2c(NCCCc3ccc(-c4cccnc4)cc3)nc(C(F)(F)F)nc2s1 [Example 293, 6-methyl-N-(3-(4-(pyridin-3-yl)phenyl)propyl)-2-(trifluoromethyl) thieno [2,3-d]pyrimidin-4-amine]
Second: CCc1nc(NCCCc2ccc(-c3ccc(C(F)(F)F)nc3)cc2)c2cc(C)sc2n1 [Example 297, 2-ethyl-6-methyl-N-(3-(4-(6-(trifluoromethyl)pyridin-3-yl)phenyl)propyl) thieno[2,3-d]pyrimidin-4-amine]
The IC50 of the first is 74-fold higher: 2500 nM for the first, 34 nM for the second. The second is the more potent here.

First: Cc1nc2c(NCCCc3ccc(-c4ccc(OC(F)(F)F)cc4)cc3)nc(-c3ccoc3)nc2s1 [Example 294, 5-(furan-3-yl)-2-methyl-N-(3-(4′-(trifluoromethoxy)-[1,1′-biphenyl]-4-yl)propyl)thiazolo [5,4-d]pyrimidin-7-amine]
Second: Cc1cc2c(NCCCc3ccc(-c4ccc(Cl)c(Cl)c4)cc3)nc(-c3ccoc3)nc2s1 [Example 298, N-(3-(3′,4′-dichloro-[1,1′-biphenyl]-4-yl)propyl)-2-(furan-3-yl)-6-methylthieno[2,3-d]pyrimidin-4-amine]
The IC50 of the first is 3.4-fold higher: 89 nM for the first, 26 nM for the second.

Going from `FC(F)(F)Oc1ccc(-c2ccc(CCCNc3nc(C(F)(F)F)nc4sccc34)cc2)cc1` [Example 296, N-(3-(4′-(trifluoromethoxy)-[1,1′-biphenyl]-4-yl)propyl)-2-(trifluoromethyl) thieno[2,3-d]pyrimidin-4-amine] to `CCc1nc(NCCCc2ccc(-c3ccc(OC4CC4)cc3)cc2)c2cc(C)sc2n1` [Example 305, N-(3-(4′-cyclopropoxy-[1,1′-biphenyl]-4-yl)propyl)-2-ethyl-6-methylthieno[2,3-d]pyrimidin-4-amine], the IC50 falls from 270 nM to 57 nM (4.7-fold). The second is the more potent here.

First: CCc1nc(NCCCc2ccc(-c3ccc(N(C)C)cc3)cc2)c2cc(C)sc2n1 [Example 299, N-(3-(4′-(dimethylamino)-[1,1′-biphenyl]-4-yl)propyl)-2-ethyl-6-methylthieno[2,3-d]pyrimidin-4-amine]
Second: CCc1nc(NCCCc2ccc(-c3ccc(F)cc3)cc2)c2cc(C)sc2n1 [Example 304, 2-ethyl-N-(3-(4′-fluoro-[1,1′-biphenyl]-4-yl)propyl)-6-methylthieno[2,3-d]pyrimidin-4-amine]
The IC50 of the first is 1.5-fold lower: 26 nM for the first, 40 nM for the second.

First: CCc1nc(NCCCc2ccc(-c3ccc(Cl)cc3Cl)cc2)c2cc(C)sc2n1 [Example 300, N-(3-(2′,4′-dichloro-[1,1′-biphenyl]-4-yl)propyl)-2-ethyl-6-methylthieno[2,3-d]pyrimidin-4-amine]
Second: CCc1nc(NCCCc2ccc(-c3ccc(C#N)cc3)cc2)c2cc(C)sc2n1 [Example 303, 4′-(3-((2-ethyl-6-methylthieno[2,3-d]pyrimidin-4-yl)amino)propyl)-[1,1′-biphenyl]-4-carbonitrile]
The IC50 of the first is 2.1-fold higher: 76 nM for the first, 37 nM for the second. The second is the more potent here.

`CCc1nc(NCCCc2ccc(-c3ccc(C4CC4)cc3)cc2)c2cc(C)sc2n1` [Example 302, N-(3-(4′-cyclopropyl-[1,1′-biphenyl]-4-yl)propyl)-2-ethyl-6-methylthieno[2,3-d]pyrimidin-4-amine] showed an IC50 of 27 nM.
